Data taken from EP0588622B1, “Bleach composition” (UNILEVER PLC, priority 1992, dated 1994).
Like-named read-outs stand apart in the source and are kept apart here.

Key:
[1] = Dye damage in tergotometer wash at pH 9 (Example VII), nylon 6,6; conditions: nylon 6,6 dyed with CI disperse 14; pH 9, 40°C, 30 minutes, peroxyacid 9.2x10^-4 mole/l
[2] = pKa determination by sodium hydroxide titration of peroxyacid solution
[3] = Dye damage in tergotometer wash at pH 9 (Example VII), diacetate; conditions: diacetate dyed with CI disperse 14; pH 9, 40°C, 30 minutes, peroxyacid 9.2x10^-4 mole/l
[4] = Dye damage in tergotometer wash at pH 9 (Example VII), triacetate; conditions: triacetate dyed with CI disperse 14; pH 9, 40°C, 30 minutes, peroxyacid 9.2x10^-4 mole/l
[5] = Stain bleaching, visual assessment of stained cloths after tergotometer wash (Example V); conditions: for Ranking: score 1 smallest, 4 greatest cleaning benefit, peroxyacid 9.2x10^-4 mol l^-1, 40°C, 30 minutes
[6] = peroxyacid solution 0.000525 moles/l plus EDTA, 22-24°C, 30 minutes
[7] = Tea stain bleaching, difference in reflectance at 460 nm before and after washing (Example VI); conditions: 40°C, 30 minutes
Experimental: The stain bleaching performance was measured by determining the difference ([…]) in %reflectance of cloths at 460 nm before and after washing. […] This was carried out in a tergotometer at 40°C, washing for 30 minutes. Cloths were washed in 450 ml 18°FH water with 1.8 g NSPA base powder and peroxyacid included at 9.2x10^-4 mol l^-1. Two series of experiments were carried out; one at pH 6 where the peracid is largely in its undissociated form and one above the peracid pKa, at pH 9. A stained piece of fabric measuring 8x8 cm was cut into four such that each quarter would be washed under one of each of the four experimental conditions. The method as in example V was used in determining the tea stain bleaching effect of sterically hindered hydrophobic peroxyacids, the differences being that 3 replicates were used, the reflectance was measured before and after washing, tests were done over a pH range of from 6 to 10 and 4 g/l NSPA base powder was used.

[8] = physchem
[9] = Dye damage in tergotometer wash with detergent base at pH 6 to 10 (Example III); conditions: peroxyacid 9.2x10^-4 mole/l, detergent base 4 g/l, 40°C, 30 minutes

## CC(CC(=O)OO)CC(C)(C)C (centres unmarked) [iso-pernonanoic, peroxy-3,5,5-trimethylhexanoic acid]
[1]
  % dye damage: 11%
[2]
  pKa: 8.1
[3]
  % dye damage: 25%
[4]
  % dye damage: 23%

## O=C(OO)C12CC3CC(CC(C3)C1)C2 [Peradamantoic, Peradamantoic acid]
[5]; Washes at pH 9
  Ranking: 4
[5]; Washes pH 6
  Ranking: 4
[5]; black biro stain, both at pH 6 and 9
  removal of the stain: almost complete removal of the stain
[6]
  % dye damage: 11.2%
[2]
  pKa: 7.95
[7]; pH 6, 4 g/l NSPA base powder
  TEA STAIN BLEACHING ΔR460NM: 13.2
[7]; pH 7, 4 g/l NSPA base powder
  TEA STAIN BLEACHING ΔR460NM: 16.9
[7]; pH 8, 4 g/l NSPA base powder
  TEA STAIN BLEACHING ΔR460NM: 17.3
[7]; pH 9, 4 g/l NSPA base powder
  TEA STAIN BLEACHING ΔR460NM: 13.1
[7]; pH 10, 4 g/l NSPA base powder
  TEA STAIN BLEACHING ΔR460NM: 3.6

## CC(C)(C)c1ccc(C(=O)OO)cc1 [p-bu^t perbenzoic, p-t-butylperbenzoic acid]
[6]
  % dye damage: 19.6%
[8]
  pKa: 7.98

## O=C(OO)C1CC2CCC1C2 (centres unmarked) [NBC, Norbornane 2-peroxyacid]
[5]; Washes at pH 9
  Ranking: 2
[5]; Washes pH 6
  Ranking: 2

## CCCCCCCCC(=O)OO [n-pernonanoic, n-pernonanoic acid]
[1]
  % dye damage: 52%
[9]; pH 6
  % DYE DAMAGE: 70.4%
[9]; pH 7
  % DYE DAMAGE: 67.9%
[9]; pH 8
  % DYE DAMAGE: 63.7%
[9]; pH 9
  % DYE DAMAGE: 37.2%
[9]; pH 10
  % DYE DAMAGE: 15.0%
[2]
  pKa: 8.1
[3]
  % dye damage: 82%
[4]
  % dye damage: 85%

## O=C(OO)C1CC2CCC1C2 (stereo not drawn) [Norbornane-endo-2-Percarboxylic]
[6]
  % dye damage: 7.0%
[2]
  pKa: 8.15

## CC1C2CCC(C2)C1C(=O)OO (stereo not drawn) [Trans-3-Methyl norbornane-endo-2-percaboxylic]
[6]
  % dye damage: 8.2%
[2]
  pKa: 8.15

## CC1(C(=O)OO)CC2CCC1C2 (stereo not drawn) [2 methylnorbornane-endo-2-percaboxylic]
[6]
  % dye damage: 5.6%
[2]
  pKa: 8.2

## CCCCc1ccc(C(=O)OO)cc1 [p-bu^n perbenzoic, reference compound]
[6]
  % dye damage: 39.6%
[2]
  pKa: 8
